Here are results for 24 molecules from the SangsterLogP compilation.

A short description of this series: method code SF-AS, from DOI: 10.1002/(sici)1521-3897(199907)341:5<499::aid-prac499>3.0.co;2-7. The following applies: pH 7.4.
The logD is lipophilicity at a set pH, counting ionised and neutral species. For the molecule `COc1ccccc1-n1nnnc1N`, the logD was found to be 0.56. In turn, `Nc1nnnn1-c1ccccc1Cl` yielded a logD of 0.87. In turn, `Nc1nnnn1-c1cccc(O)c1` came in with a logD of 0.56.

Consider `Nc1nnnn1-c1cccc([N+](=O)[O-])c1`, for which the logD was 0.67. With `Nc1nnnn1-c1ccc(Cl)cc1Cl` the figure was 1.63; with `Nc1nnnn1-c1ccc(F)cc1`, 0.75; with `Nc1nnnn1-c1ccc(Cl)cc1`, 1.41. The same measure for `Cc1cccc(-n2nnnc2N)c1`: 1.24. For the molecule `Cc1ccccc1-n1nnnc1N`, the logD worked out at 0.93. With `Nc1nnnn1-c1ccc(O)cc1` the figure was 0.33; with `Cc1ccc(C)c(-n2nnnc2N)c1`, 1.46; with `Nc1nnnn1-c1c(Cl)cccc1Cl`, 1.56. Regarding `Nc1nnnn1-c1cc(Cl)ccc1Cl`, the pH-dependent lipophilicity (logD) was 1.61. The logD values of the last two molecules are within 0.2 log units of each other. With `Cc1ccc(-n2nnnc2N)cc1Cl` the figure was 1.89; with `Nc1nnnn1-c1cc(Cl)c(Cl)cc1Cl`, 2.3. With `Nc1nnnn1-c1ccc(Br)cc1` the figure was 1.64; with `Nc1nnnn1-c1cccc(Cl)c1`, 1.44. The same measure for `Nc1nnnn1-c1ccccc1`: 0.69; for `Nc1nnnn1-c1ccc(Cl)c(Cl)c1`: 2.06.

Molecule `Nc1nnnn1-c1cccc2ccccc12` showed a logD of 1.72. With `COc1ccc(-n2nnnc2N)cc1` the figure was 0.85; with `CCOc1ccc(-n2nnnc2N)cc1`, 1.32; with `Nc1nnnn1-c1ccc([N+](=O)[O-])cc1`, 0.77. With `Nc1nnnn1-c1ccc2ccccc2c1` the figure was 2.08.
